What was measured:
[1] = test system: halitosis ingredient (Hydrogen sulfide) derived from oral microbes; experiment: Sedimentation of halitosis ingredient by absorbance analysis (FeS, 700 nm) in cultured saliva; type: cell-based, oral bacteria in saliva; conditions: cultured saliva 0.5 ml, FeSO4, 24 hours 37 degrees C. anaerobic, absorbance 700 nm
Procedure: Using the cigarette prepared in Example 24-1, the sedimentation of halitosis ingredient thereof was measured via absorbance analysis. To this end, an experiment was conducted to identify the reducing ability for the halitosis ingredient derived from oral microbes when smoking the cigarette with the filter having the pine needle and rosemary based substances added thereto.
The experiment for measuring the sedimentation of halitosis ingredients was as follows. Hydrogen sulfide in a volatile sulfur compound as mouth odor ingredient generated when cultivating oral bacteria in saliva was combined with iron in a liquid state such that iron sulfide (FeS) in a form of a black precipitate occurred. Thus, the sedimentation of halitosis ingredient was analyzed. First, whole saliva was incubated for 48 hours at 37 degrees C. under anaerobic conditions. Then, […] of oil based test substance or 20 μl of a single ingredient was added to 0.5 ml cultured saliva. 0.05 g surfactant was added thereto. The salvia was mixed with 0.05 g ferrous sulfate II (FeSO4). The mixture was incubated for 24 hours at 37 degrees C. under anaerobic conditions. Thus, absorbance of the culture was measured at 700 nm to determine sedimentation of halitosis ingredients.
However, there was a limit in the detection in the direct analysis of cigarette due to the difference in smoking amount.

[2] = Methyl mercaptan reducing ability (deodorizing activity), headspace GC/MS; conditions: methyl mercaptan 1 μg/ml 2 ml, pH 7.5, 42 degrees C. 6 minutes; powders/granules 10 mg in 2 ml water; oil/flavoring liquid 2 ml; single ingredient 3 ppm
Procedure: Using the cigarette prepared in Example 24-1, an experiment was conducted to identify reducing ability for the methyl mercaptan as a representative halitosis ingredient in the cigarette smoke.
Pine needle and rosemary based powders, granules, oils, and flavoring liquid, as well as pine needle based fragrance carrying ingredients, that is, alpha-pinene, bonyl acetate, and rosemary based fragrance carrying ingredients, that is, 1,8-cineol, and borneol were added to the cigarette filter. Thus, a cigarette including the cigarette filter was prepared to identify methyl mercaptan reducing ability.
A content of methyl mercaptan as used was 1 ppm [1 μg/ml] 2 ml. When the pine needle and rosemary based powders and granules were used, 10 mg of the sample was extracted with 2 ml of water and was used. In one example, when using the oil and flavoring liquid based on pine needle and rosemary, 2 ml thereof was used. As for a single ingredient, 3 ppm (3 μg/ml) of the sample was extracted with 2 ml of water and was used.
The analysis experiment of reducing ability for methyl mercaptan included a pretreatment process of the sample, and the analysis process under the headspace sampler condition and the GC/MS-SIM condition. First, 10 mg of pine needle and rosemary based powders and granules sample were put into a 20 ml vial, which was immersed in 2 ml of water for 1 hour. Next, 2 ml of 0.2 M potassium phosphate was added thereto and the pH was adjusted to 7.5. Thereafter, 2 ml of methyl mercaptan (1 μg/ml) was added thereto and the vial was sealed, followed by stirring with a Vortex mixer for 5 seconds. In the headspace sampler, reaction occurred at 42 degrees C. for 6 minutes, and methyl mercaptan isolated into headspace was directly analyzed via GC/MS. An area of methyl mercaptan obtained as a result of the GC/MS analysis was compared with that of the control to determine the reduction percentage.
Deodorizing Activity (DA, %)=[C−S]/C×100 • C: methyl mercaptan area of control • S: Methyl mercaptan area of test group • See Tokita, F. et al. Nippon Nogeikagaku Kaishi 58(6), p 585 to 589 [1984].
The GC/MS instrument based analysis conditions were set as follows. Headspace Sampler conditions were set as follows: culture temperature: 42 degrees C., culture duration: 6 minutes, and transfer liner temperature: 100 degrees C.
The GC/MS-SIM conditions were set as follows: DB-624(60 m, 0.25 mm, 0.25 um) column was used; Oven Temp: 35 degrees C. for 10 minutes; post run: 250 degrees C. for 30 minutes. Injector/Interface Temp was 150 degrees C. or 220 degrees C. For injection, Split 10:1, flow rate 1 ml/min, methyl mercaptan ion (m/z): quantitative ion 47; and qualitative ion 48 and 45. […]

Compound	Halitosis ingredient (Hydrogen sulfide) Reducing ability (%) [1]	Methyl mercaptan Reducing ability (%) [2]
CC1(C)C2CCC1(C)C(O)C2 (centres unmarked) [Borneol]	45.0%	30.7%
CC12CCC(CC1)C(C)(C)O2 [1,8-Cineol]	37.0%	51.9%
CC(=O)O[C@@H]1C[C@@H]2CC[C@@]1(C)C2(C)C [Bonyl acetate]	36.0%	41.7%
CC1=CCC2CC1C2(C)C (stereo not drawn) [α-Pinene]	50.0%	54.7%

Source: patent US20230071441A1, “CIGARETTE FILTER CONTAINING NATURAL PLANT MATERIAL, PREPARATION METHOD THEREOF, AND CIGARETTE INCLUDING THE FILTER” (KT & G Corporation, priority 2019, published 2023)
